CC[C@H](/C=C/[C@@H](C)[C@H]1CC[C@H]2[C@@H]3CC=C4C[C@@H](OC(=O)/C=C\C(=O)O)CC[C@]4(C)[C@H]3CC[C@]12C)C(C)C
Conditions | solubility (mole fraction)
in acetone, 293.15 K | 0.000383
in acetone, 296.65 K | 0.000431
in acetone, 303.65 K | 0.000535
in acetone, 317.15 K | 0.000785
in acetone, 325.65 K | 0.00102
in ethyl acetate, 288.15 K | 0.00146
in ethyl acetate, 293.25 K | 0.00179
in ethyl acetate, 298.15 K | 0.00202
in ethyl acetate, 302.65 K | 0.0028
in ethyl acetate, 308.65 K | 0.00395
in ethyl acetate, 312.65 K | 0.00438
in ethyl acetate, 317.35 K | 0.0053
